Laboratory results reported in patent US20080026084A1, “Method and composition for management of weight and blood sugar” (PhytoMyco Research Corporation, priority 2006, published 2008).

Assays:
[1] = system: 3T3-L1 cells; assay: assays of this invention (lipolysis, inhibition of adipocyte differentiation, de-differentiation, leptin secretion); assay type: cell-based, mouse
Excerpt: Method i): Oil Red O staining which stains fat droplets in fat cells and thereby gives a directly related indication of the level of adipogenesis as a function of the amount of staining of fat droplets.
Method ii): GPDH or […] is a key enzyme involved in the pathway of triglyceride synthesis in the glycolytic pathway. Adipocytes express highlevels of this enzyme. Therefore, a reduction in GPDH levels is indicative of inhibition of adipogenesis (prevention of fat accumulation in cells).
Method iii): Assay to observe de-differentiation of adipocytes to preadipocytes can be used to detect compounds and mixtures of compounds that are capable of breaking down existing stores of body fat. This assay identifies compounds and mixtures of compounds than induce the […] of adipocytes to preadipocytes and is quantitatively assessed by developing a color response using Oil Red O staining or by measuring GPDH levels as in methods i) and ii), respectively. Such compounds and mixtures of compounds as extracts of plants can have a direct effect on reducing weight because they cause fat cells to become non-fat cells (preadipocytes).
Method iv) Leptin Secretion assay can be used to determine the presence of leptin which is a product of the Ob gene. It is a hormone secreted by mature adipocytes that plays a role in regulating body fat storage. High levels of leptin circulating in the blood indicate hormonally that energy stores are high, and therefore mitigate the need for further food intake. Compounds or mixtures of compounds of this invention that increase leptin secretion can be administered orally to an overweight or obese person to reduce appetite in that person, and therefore to reduce food intake by that person.
In this assay, pre-adipocyte cells are seeded in 96-well plates and are induced to convert to adipocytes over the course of a 10-15 day treatment with […] reagents. After cells have converted to adipocytes, the cells are starved, and then subsequently treated with or exposed to test compounds or mixtures of compounds or extracts of plants or fractionated extracts of plants. The adipocytes are treated with test compounds in the presence of a surrounding cell medium. Over the course of 1 to 3 hours after exposure to the test compounds or mixture of compounds, the amount of glycerol present in the cell medium is measured. Glycerol and fatty acids are hydrolysis products of triglycerides, and glycerol is released from cells after enzymatic hydrolysis or breakdown of lipids. Results are expressed as a percentage of the amount of glycerol present detected in a reference assay comprising an untreated control. Untreated controls are cells that are treated with vehicle only (such as 100% DMSO).
Inhibition of adipocyte differentiation is assayed by measuring the levels of the enzyme glycerol-3-phosphate dehydrogenase (GPDH). GPDH is involved in the pathway of triglyceride synthesis in the glycolytic pathway. Colorimetric assays can be used to screen for compounds and mixtures of compounds than inhibit the differentiation of preadipocytes to adipocytes. Oil Red O is a colorimetric assay that can be used to stain lipids in adipocytes.
In this assay pre-adipocyte cells require 10 to 15 days to differentiate into adipocytes. […] After cells have undergone the 10-15 days required to differentiate, cells are assessed for GPDH activity.
Results are expressed as a percentage of the untreated control average. […]

[2] = in vivo; cited from earlier work

Compound | activity in the assays of this invention [1] | decrease of the amount of fat absorbed from the diet [2]
Cephalandrine B | active | –
CCCCCCCCCCC[C@@H](C[C@@H]1OC(=O)[C@H]1CCCCCC)OC(=O)[C@H](CC(C)C)NC=O [Orlistat] | – | about 30%
CC(C)(O)/C=C/C(=O)[C@](C)(O)[C@H]1[C@H](O)C[C@@]2(C)[C@@H]3CC=C4[C@@H](C[C@H](O)C(=O)C4(C)C)[C@]3(C)C(=O)C[C@]12C [cucurbitacin D] | active | –
CC(=O)OC(C)(C)/C=C/C(=O)[C@](C)(O)[C@H]1[C@H](O)C[C@@]2(C)[C@@H]3CC=C4[C@H](C[C@H](O)C(=O)C4(C)C)[C@]3(C)C(=O)C[C@]12C [cucurbitacin B] | active | –
Cephalandrine A | active | –
Cephalandrol | active | –
